# Earlier results in patent US20100323978A1, “Non-aqueous oil delivery system for ophthalmic drugs” (priority 2009, published 2010).
# Structures can show the parent of a compound that is named as a salt. Where two headings read alike, the source gives them in different places.
# Tests used:
# [1] = warning label
# rabbits = settings: 10 micro Liters eye drop
# rabbit eyes = settings: aqueous suspension injected into the eyes for three days
# [2] = 0.15 Molar suspended in sesame seed oil
compound,measurement,setting,value
CN(C)CCOC(=O)C(c1ccccc1)C1(O)CCCC1 (centres unmarked) [Cyclopentolate HCl],stability of powder,[1],not stable at room temperature
CNC[C@H](O)c1cccc(O)c1 [phenylephrine free base],mydriasis in the rabbit,rabbits; [2],produced mydriasis
CNC[C@H](O)c1cccc(O)c1 [phenylephrine HCl],mydriasis in the rabbit,rabbits; [2],ineffective
same,mydriasis in the rabbit,rabbits; 0.5 Molar suspended in sesame seed oil,slightly effective
alpha-hydroxy-testosterone,intra-ocular pressure,rabbit eyes,decreased
